Here are results for 14 compounds from patent US20250082614A1, “METHODS OF USING RAD51 INHIBITORS FOR TREATMENT OF PANCREATIC CANCER” (Cyteir Therapeutics, Inc., priority 2019, published 2025).

Where two headings read alike, the source gives them in different places.

Series [1] is described as follows: Bi-directional Caco-2 permeability. Format: in vitro ADME. To be noted: human; for Papp A→B at 90 min / Papp B→A at 90 min: Caco-2, 37° C., up to 90 minutes; for Papp A→B at 90 min: apical to basolateral, read-out: AB Papp (cm/sec × 10^6); for Papp B→A at 90 min: basolateral to apical, read-out: BA Papp (cm/sec × 10^6); for efflux ratio at 90 min: Caco-2 efflux ratio, read-out: BA/AB Ratio. Here is the method:
Bi-directional Caco-2 permeability was assayed. Caco-2 cells were seeded onto permeable polycarbonate supports and allowed to differentiate for about 3 weeks prior to being used in the assays. The cells were then exposed to the compounds from either the apical or basolateral sides and incubated at 37° C. for up to 90 minutes under light agitation. Compound transport was then measured using LC/MS/MS analysis at 30, 60, and 90 minutes.
Background: Caco-2 cells form a polarised layer with tight junctions and transporters.

In series [2] the test system is Daudi cell line (AID positive). Kind of series: Cell killing assay in the Daudi cell line (AID positive), Cell-Titer Glo. Format: cell-based. To be noted: Homo sapiens, 168 h; Daudi cells (AID positive), cell death on Day 7. Here is the method: Primary screening was a phenotypic screen that utilized the synthetic lethal interaction between AID and RAD51 to identify compounds that were both potent and on target. AID expressing cells are dependent upon RAD51 for survival; inhibiting RAD51 in AID positive cells results in a cytotoxic effect.
The first step was to set up a cell killing assay in the Daudi cell line (AID positive). A 96 well u-bottom plate was prepared by writing the experiment number, plate number, date and initials in the top right corner of the plate lid. With a sterile 300 ml reservoir, and 25 ml serological pipette, evaporation buffer media was pipetted into reservoir in 25 ml increments. Using the liquid handler, 150 ul of evaporation buffer media was pipetted from reservoir into rows A and H, and Columns 1 and 12 of the 96 well u-bottom plate. Cell cultures were counted to obtain the density of cells per ml, and the culture viability. The cell density information was used to obtain 1,000,000 cells from culture using a 5 mL serological pipette into an epi tube. The cell density information from the culture was used to calculate the number of cells and volume of media needed for the assay to seed 1250 cells in 130 ul of media per available culture well in the 96 well u-bottom plate. Rows B through F were used for cells (50 wells in total), with row G left for an empty media control. The calculation was overestimated by 10 mL to account for the dead volume in the 300 ml reservoir. Once the media volume was calculated, the appropriate volume of media was pipetted in 25 mL increments into the 250 mL bottle using a 25 mL serological pipette. The 250 ml bottle was capped tightly, and placed into a 37° C. water bath for 2 minutes. While the culture media was warming, 10 mL of fresh media was pipetted from the 500 mL culture media bottle into a sterile 25 mL reservoir. Using the Eppendorf multichannel pipette, 130 ul of media was pipetted from the 25 mL reservoir into row G of the 96 well u-bottom plate. […]

A short description of series [3]: Pharmacokinetic (PK) study, plasma by LC-MS. Format: in vivo, rat. To be noted: po @ 80 mg/kg. Here is the method:
PK studies in mice were used to determine the fate of the compounds in a whole organism. Rats were treated with the compounds either orally of via IV at the indicated doses and followed for up to 24 hours. Plasma samples were taken at different time points and analyzed by LC-MS.

A short description of series [4]: Human liver microsome stability. Type of series: in vitro ADME. Conditions: human liver microsomes. On the procedure:
The stability of the claimed compounds was determined in the presences of human liver microsomes. The compounds were incubated with the microsomes at 37° C. for 45 minutes. Samples were analyzed using LC-MS/MS. Data analysis included half-life, clearance rate, and the percentage of hepatic blood flow […] for each of the compounds in the different species.

The mark [5] stands for this setting: Caco-2, apical to basolateral, read-out: AB Recovery %.
The mark [6] stands for this setting: Caco-2, basolateral to apical, read-out: BA Recovery %.

Regarding `CC(C)OC(=O)N[C@@H]1CCC(c2ncc(-c3ccc(NC(=O)NCc4ccccc4)cc3S(=O)(=O)NC(C)(C)C)s2)OC1` (mixture of isomers) [Ex. 59, trans-isopropyl N-[6-[5-[4-(benzylcarbamoylamino)-2-(tert-butylsulfamoyl)phenyl]thiazol-2-yl]tetrahydropyran-3-yl]carbamate], in series [1] (setting [5]), the recovery at 90 min came to 61.5%. For the same compound, the recovery at 90 min in series [1] (setting [6]) was found to be 91.5%. In series [1], the Papp A→B at 90 min was 3.1 ×10⁻⁶ cm/s, the Papp B→A at 90 min is 15 ×10⁻⁶ cm/s and the efflux ratio at 90 min came to 4.8.
The corresponding values for `CC(C)OC(=O)Nc1ccc(-c2cnc(C3CC[C@@H](NC(=O)OC(C)C)CO3)s2)c(S(=O)(=O)NC(C)(C)C)c1` (mixture of isomers) [Ex. 60, trans-isopropyl N-[6-[5-[2-(tert-butylsulfamoyl)-4-(isopropoxycarbonylamino)phenyl]thiazol-2-yl]tetrahydropyran-3-yl]carbamate] are 59.8%, 90.8%, 15.6 ×10⁻⁶ cm/s, 13.3 ×10⁻⁶ cm/s and 0.9.
Turning to `CC(C)OC(=O)Nc1ccc(-c2cnc(C3CCC(NC(=O)OC[C@@H]4CCCN4C)CC3)s2)c(S(=O)(=O)NC(C)(C)C)c1` (stereo partly drawn) [Ex. 9, isopropyl (3-(N-(tert-butyl)sulfamoyl)-4-(2-((1S,4r)-4-(((((S)-1-methylpyrrolidin-2-yl)methoxy)carbonyl)amino)cyclohexyl)thiazol-5-yl)phenyl)carbamate], the EC50 in series [2] lay in the range of 100 to 1000 nM.
Regarding `CC(C)NC(=O)OC1CCC(c2ncc(-c3ccc(NC(=O)NCc4ccccc4)cc3S(=O)(=O)NC(C)(C)C)s2)CC1` (stereo not drawn) [Ex. 21], in series [1], the Papp A→B at 90 min worked out at 3.6 ×10⁻⁶ cm/s, the Papp B→A at 90 min stood at 10.7 ×10⁻⁶ cm/s and the efflux ratio at 90 min came out at 3.
As to `CC(C)OC(=O)N[C@H]1CC[C@H](c2ncc(-c3ccc(NC(=O)NCc4ccncc4)cc3S(=O)(=O)NC(C)(C)C)s2)CC1` [Ex. 22, trans-isopropyl N-[4-[5-[2-(tert-butylsulfamoyl)-4-(4-pyridylmethylcarbamoylamino)phenyl]thiazol-2-yl]cyclohexyl]carbamate], the recovery at 90 min in series [1] (setting [5]) is 83.1%. Further, the recovery at 90 min in series [1] (setting [6]) is 89%. In series [1], the Papp A→B at 90 min is 1.1 ×10⁻⁶ cm/s, the Papp B→A at 90 min was found to be 21 ×10⁻⁶ cm/s and the efflux ratio at 90 min worked out at 18.7.
With `CC(C)OC(=O)NC1CCC(c2ncc(-c3ccc(NC(=O)NCc4cccc(F)c4)cc3S(=O)(=O)NC(C)(C)C)s2)CC1` (stereo not drawn) [Ex. 27, isopropyl ((1r,4r)-4-(5-(2-(N-(tert-butyl)sulfamoyl)-4-(3-(3-fluorobenzyl)ureido)phenyl)thiazol-2-yl)cyclohexyl)carbamate], in series [1], the Papp A→B at 90 min was determined as 0.7 ×10⁻⁶ cm/s, the Papp B→A at 90 min stood at 0.5 ×10⁻⁶ cm/s and the efflux ratio at 90 min worked out at 0.7.
The corresponding values for `CC(C)OC(=O)NC1CCC(c2ncc(-c3ccc(NC(=O)NCc4ccccc4F)cc3S(=O)(=O)NC(C)(C)C)s2)CC1` (stereo not drawn) [Ex. 28, isopropyl ((1r,4r)-4-(5-(2-(N-(tert-butyl)sulfamoyl)-4-(3-(2-fluorobenzyl)ureido)phenyl)thiazol-2-yl)cyclohexyl)carbamate] are 1.9 ×10⁻⁶ cm/s, 3.3 ×10⁻⁶ cm/s and 1.7.
Consider `CC(C)OC(=O)NC1CCC(c2ncc(-c3ccc(NC(=O)NCc4ccccn4)cc3S(=O)(=O)NC(C)(C)C)s2)CC1` (stereo not drawn) [Ex. 29, isopropyl ((1r,4r)-4-(5-(2-(N-(tert-butyl)sulfamoyl)-4-(3-(pyridin-2-ylmethyl)ureido)phenyl)thiazol-2-yl)cyclohexyl)carbamate], for which the “F (%) @ 5 mg/kg” value in series [3] (Rat Female) was 8.39%. In addition, the “F (%) @ 5 mg/kg” value in series [3] (Rat Male) is recorded as 3.69%. Also, the “% QH (percentage of hepatic blood flow)” value in series [4] turned out to be 78.8%. Besides, in series [1], the Papp A→B at 90 min was determined as 10.9 ×10⁻⁶ cm/s, the Papp B→A at 90 min stood at 24.1 ×10⁻⁶ cm/s and the efflux ratio at 90 min came out at 2.2.
In the case of `CC(C)OC(=O)NC1CCC(c2ncc(-c3ccc(NC(=O)N[C@H](C)c4ccccn4)cc3S(=O)(=O)NC(C)(C)C)s2)CC1` (stereo partly drawn) [Ex. 30, isopropyl ((1R,4r)-4-(5-(2-(N-(tert-butyl)sulfamoyl)-4-(3-((R)-1-(pyridin-2-yl)ethyl)ureido)phenyl)thiazol-2-yl)cyclohexyl)carbamate], in series [1], the Papp A→B at 90 min is 11.5 ×10⁻⁶ cm/s, the Papp B→A at 90 min is 15.7 ×10⁻⁶ cm/s and the efflux ratio at 90 min amounted to 1.4.
Turning to `CC(C)OC(=O)NC1CCC(c2ncc(-c3ccc(NC(=O)NCc4ncccc4F)cc3S(=O)(=O)NC(C)(C)C)s2)CC1` (stereo not drawn) [Ex. 31, isopropyl ((1r,4r)-4-(5-(2-(N-(tert-butyl)sulfamoyl)-4-(3-((3-fluoropyridin-2-yl)methyl)ureido)phenyl)thiazol-2-yl)cyclohexyl)carbamate], the “F (%) @ 5 mg/kg” value in series [3] (Rat Female) was 2.77%. Moreover, the “F (%) @ 5 mg/kg” value in series [3] (Rat Male) amounted to 1.49%. Further, the “% QH (percentage of hepatic blood flow)” value in series [4] was 77.3%. In addition, in series [1], the Papp A→B at 90 min came to 12.8 ×10⁻⁶ cm/s, the Papp B→A at 90 min was found to be 13.6 ×10⁻⁶ cm/s and the efflux ratio at 90 min came out at 1.1.
For `CC(C)OC(=O)NC1CCC(c2ncc(-c3ccc(NC(=O)OC[C@H]4CCCN4C)cc3S(=O)(=O)NC(C)(C)C)s2)CC1` (stereo partly drawn) [Ex. 34, isopropyl ((1R,4r)-4-(5-(2-(N-(tert-butyl)sulfamoyl)-4-(((((R)-1-methylpyrrolidin-2-yl)methoxy)carbonyl)amino)phenyl)thiazol-2-yl)cyclohexyl)carbamate], the EC50 in series [2] lay within 100 to 1000 nM. In series [1], the Papp A→B at 90 min was 0.4 ×10⁻⁶ cm/s, the Papp B→A at 90 min stood at 45.2 ×10⁻⁶ cm/s and the efflux ratio at 90 min came to 104.
`CC(C)OC(=O)NC1CCC(c2ncc(-c3ccc(NC(=O)OC[C@@H]4CCCN4C)cc3S(=O)(=O)NC(C)(C)C)s2)CC1` (stereo partly drawn) [Ex. 35, isopropyl ((1S,4r)-4-(5-(2-(N-(tert-butyl)sulfamoyl)-4-(((((S)-1-methylpyrrolidin-2-yl)methoxy)carbonyl)amino)phenyl)thiazol-2-yl)cyclohexyl)carbamate]: in series [2], the EC50 is 100 to 1000 nM. For the same compound, in series [1], the Papp A→B at 90 min stood at 0.4 ×10⁻⁶ cm/s, the Papp B→A at 90 min was 41 ×10⁻⁶ cm/s and the efflux ratio at 90 min was determined as 99.1.
In the case of `CC(C)OC(=O)N[C@@H]1CCC(c2ncc(-c3ccc(NC(=O)NCc4ccccc4)cc3S(=O)(=O)NC(C)(C)C)s2)NC1` (stereo partly drawn) [Ex. 64], in series [1], the Papp A→B at 90 min was 2.2 ×10⁻⁶ cm/s, the Papp B→A at 90 min was 27.4 ×10⁻⁶ cm/s and the efflux ratio at 90 min was 12.5.
Take `CC(C)OC(=O)N[C@H]1CC[C@H](c2ncc(-c3ccc(NC(=O)NCc4ccccc4)cc3S(=O)(=O)NC(C)(C)C)s2)CC1` [Ex. 66A, trans-isopropyl N-[4-[5-[4-(benzylcarbamoylamino)-2-(tert-butylsulfamoyl)phenyl]thiazol-2-yl]cyclohexyl]carbamate]: the “F (%) @ 5 mg/kg” value stood at 3.31% in series [3] (Rat Female) and 2.55% in series [3] (Rat Male). The “% QH (percentage of hepatic blood flow)” value in series [4] was 49.6%.

What is called EC50 is the concentration needed to bring the measured effect to its halfway point.
